The text below walks through data of patent US9844542B2, “Substituted imidazopyridine and triazolopyridine compounds as negative allosteric modulators of mGluR5” (Vanderbilt University, priority 2013, dated 2017).

Values joined by “and” are separate entries in the source; they are usually repeats but may differ in a detail not shown here. Equal values may be shown once.

The experiment deals with T1, rat mGluR5 (Rattus norvegicus, UniProt P31424).
T1 construct: expressed in transfected cells
T1 sequence (P31424 21-1171 isoform P31424-2 limits assumed): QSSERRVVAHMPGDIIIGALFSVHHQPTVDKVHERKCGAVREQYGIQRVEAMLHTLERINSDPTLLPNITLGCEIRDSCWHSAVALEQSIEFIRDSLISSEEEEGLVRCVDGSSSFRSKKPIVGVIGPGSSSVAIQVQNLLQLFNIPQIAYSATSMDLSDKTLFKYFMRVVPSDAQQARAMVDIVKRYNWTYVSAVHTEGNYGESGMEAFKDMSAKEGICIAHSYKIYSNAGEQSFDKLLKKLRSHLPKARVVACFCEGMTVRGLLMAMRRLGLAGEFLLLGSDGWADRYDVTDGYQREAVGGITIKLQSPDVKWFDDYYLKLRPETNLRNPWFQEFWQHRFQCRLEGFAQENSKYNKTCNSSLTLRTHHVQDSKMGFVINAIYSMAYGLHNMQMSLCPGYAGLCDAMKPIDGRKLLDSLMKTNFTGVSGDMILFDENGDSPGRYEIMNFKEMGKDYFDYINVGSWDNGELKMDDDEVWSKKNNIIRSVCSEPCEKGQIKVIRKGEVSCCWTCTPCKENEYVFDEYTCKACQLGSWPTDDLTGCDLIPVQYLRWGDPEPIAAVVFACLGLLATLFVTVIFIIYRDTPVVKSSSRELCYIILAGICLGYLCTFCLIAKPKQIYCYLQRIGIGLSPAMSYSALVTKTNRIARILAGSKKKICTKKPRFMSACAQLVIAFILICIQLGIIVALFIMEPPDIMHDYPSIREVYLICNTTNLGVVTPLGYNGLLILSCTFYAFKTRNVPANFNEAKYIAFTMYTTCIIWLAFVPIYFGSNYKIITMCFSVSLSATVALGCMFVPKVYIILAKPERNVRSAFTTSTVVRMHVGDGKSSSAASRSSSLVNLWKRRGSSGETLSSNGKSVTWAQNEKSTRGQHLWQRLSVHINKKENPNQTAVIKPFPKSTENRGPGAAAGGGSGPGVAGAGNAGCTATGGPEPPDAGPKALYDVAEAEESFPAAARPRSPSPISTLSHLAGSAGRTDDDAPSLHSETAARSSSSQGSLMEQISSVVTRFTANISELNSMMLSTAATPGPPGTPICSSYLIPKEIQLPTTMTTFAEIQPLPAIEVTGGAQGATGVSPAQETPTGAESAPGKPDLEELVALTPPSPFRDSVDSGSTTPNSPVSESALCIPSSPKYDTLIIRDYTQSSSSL
The experiment is described as follows: mGluR5 calcium mobilization assay (FDSS, Fluo-4) in HEK 293A cells stably expressing rat mGluR5. The class given is cell-based. As to conditions: HEK cells transfected with rat mGluR5; antagonism of glutamate EC80 response; ± = standard error of at least three experiments. The procedure:
Human embryonic kidney (HEK) cells transfected with rat or human mGluR5 were plated in clear bottom assay plates for assay in a Functional Drug Screening System (FDSS). The cells were loaded with a Ca^2+-sensitive fluorescent dye (e.g., Fluo-4), and the plates were washed and placed in the FDSS instrument. Test compound was applied to cells 3 seconds after baseline readings were taken. Cells were incubated with the test compounds for 140 seconds and then stimulated with an EC20 concentration of an mGluR5 agonist (e.g., glutamate, 3,5-dihydroxyphenylglycine, or quisqualate); 60-80 seconds later an EC80 concentration of agonist was added and readings taken for an additional 40 seconds. Data were collected at 1 Hz. […] Concentration response curves were generated using a four parameter logistical equation.
The above described assay was operated in two modes. In the first mode (utilizing a triple add protocol), a range of concentrations of the present compounds were added to cells, followed by two single fixed concentrations of agonist (EC20 followed by EC80). If a compound acted as a potentiator, an EC50 value for potentiation of the EC20 response and a maximum extent of potentiation by the compound at this concentration of agonist was determined by non-linear curve fitting. If a compound acted as an antagonist, an IC50 value for antagonism of the EC80 response and a maximum extent of antagonism by the compound at this concentration of agonist was determined by non-linear curve fitting. In the second mode (utilizing a double add protocol), several fixed concentrations of the present compounds were added to various wells on a plate, followed by a range of concentrations of agonist for each concentration of present compound; the EC50 values for the agonist at each concentration of compound were determined by nonlinear curve fitting. A decrease in the EC50 value of the agonist with increasing concentrations of the present compounds (a leftward shift of the agonist concentration-response curve) is an indication of the degree of mGluR5 positive allosteric modulation at a given concentration of the present compound. An increase in the EC50 value of the agonist with increasing concentrations of the present compounds (a rightward shift of the agonist concentration response curve) is an indication of the degree of mGluR5 antagonism at a given concentration of the present compound. The second mode also indicates whether the present compounds also affect the maximum response to mGluR5 to agonists.
The mGluR5 activity was determined using the calcium mobilization assays in human embryonic kidney cells as described herein below, wherein the human embryonic kidney cells were transfected with rat mGluR5. The mGluR5 activity data for some compounds are shown as the average of at least three experiments with the standard error in these cases. If no error is indicated for the mGluR5 activity, the values given represent the results from a single experiment or the average of two experiments. The compounds in Table 1 were synthesized with methods identical or analogous to those shown herein. The requisite starting materials were commercially available, described in the literature, or readily synthesized by one skilled in the art of organic synthesis.
GluMax is the amplitude of response in the presence of 30 μM test compound as a percentage of maximal response (100 μM glutamate). Partial antagonists display concentration-response curves (CRCs) that plateau above 10%.
The preparation of rat mGluR5 stable cell-lines is as previously described (e.g. see Romano et al. J Biol. Chem. 1996 Nov. 8; 271(45):28612-6).
With `O=C(Nc1cccc(F)n1)c1cc(Oc2cncc(Cl)c2)cn2cnnc12`, the IC50 (as a rule, the concentration that inhibits the measured activity by half) is 0.414 µM.

On to `O=C(Nc1nc(C2CC2)cs1)c1cc(Oc2cncnc2)cn2ncnc12`, for which the IC50 worked out at 0.161 µM. On to `Cc1ccc(NC(=O)c2cc(Oc3cncnc3)cn3ncnc23)nc1`, for which the IC50 came out at 0.138 µM.

On to `COc1cncc(Oc2cc(C(=O)Nc3cccc(OC)n3)c3nncn3c2)c1`, for which the IC50 was more than 10 µM. Turning to `COc1cncc(Oc2cc(C(=O)Nc3cccc(F)n3)c3nncn3c2)c1`, the IC50 came out at 4.13 µM. As for `Cc1csc(NC(=O)c2cc(Oc3cncc(Cl)c3)cn3ccnc23)n1`, the IC50 came to 0.182 µM. As to `COc1cncc(Oc2cc(C(=O)Nc3cccc(F)n3)c3ncnn3c2)c1`, the IC50 is 0.258 µM.

As for `Cc1nc(NC(=O)c2cc(Oc3cncnc3)cn3ncnc23)ccc1F`, the IC50 worked out at 0.296 µM.

With `COc1cncc(Oc2cc(C(=O)Nc3ccccn3)c3ncnn3c2)c1`, the IC50 worked out at 0.099 µM. As for `O=C(Nc1ccccn1)c1cc(Oc2cncc(F)c2)cn2ccnc12`, the IC50 came out at 0.016 µM. In the case of `Cc1nc(NC(=O)c2cc(Oc3cncc(F)c3)cn3ncnc23)ccc1F` it was 0.092 µM; in that of `Cc1csc(NC(=O)c2cc(Oc3cncc(F)c3)cn3c(C)nnc23)n1`, 0.426 µM. Regarding `O=C(Nc1ccccn1)c1cc(Oc2cncc(F)c2)cn2ncnc12`, the IC50 was determined as 0.025 µM. `O=C(Nc1ccc(F)cn1)c1cc(Oc2cncc(Cl)c2)cn2ccnc12`: the IC50 is 0.076 µM. With `O=C(Nc1ccccn1)c1cc(Oc2cccnc2)cn2ncnc12`, the IC50 came to 0.028 µM. On to `COc1ccc(NC(=O)c2cc(Oc3cncc(F)c3)cn3cnnc23)nc1`, for which the IC50 came to 0.082 µM. Take `O=C(Nc1cccc(F)n1)c1cc(Oc2cncc(F)c2)cn2cnnc12`: the IC50 turned out to be 0.05 µM. As to `COc1cncc(Oc2cc(C(=O)Nc3cccc(OC)n3)c3ncnn3c2)c1` [drawing 289], the IC50 turned out to be 0.416 µM.

Regarding `O=C(Nc1ccccn1)c1cc(Oc2cncc(F)c2F)cn2ncnc12`, the IC50 stood at 0.036 µM. Next, `Cc1ccc(NC(=O)c2cc(Oc3cncc(F)c3)cn3nc(C)nc23)nc1`: 0.468 µM. In the case of `COc1cccc(NC(=O)c2cc(Oc3cccnc3)cn3ncnc23)n1` it was 0.04 µM; in that of `O=C(Nc1ccc(F)cn1)c1cc(Oc2cncc(O)c2)cn2ncnc12`, 0.04 µM; in that of `[2H]c1nc(NC(=O)c2cc(Oc3cccnc3)cn3ncnc23)c([2H])c([2H])c1[2H]`, 0.026 µM. Regarding `Cc1csc(NC(=O)c2cc(Oc3cncc(F)c3)cn3nc(C)nc23)n1`, the IC50 amounted to 0.135 µM. Turning to `Cc1csc(NC(=O)c2cc(Oc3cncc(Cl)c3)cn3cnnc23)n1`, the IC50 is 0.666 µM.

With `Cc1ccc(NC(=O)c2cc(Oc3cnc(C)nc3)cn3cnnc23)nc1`, the IC50 was more than 10 µM. Regarding `[2H]c1nc(NC(=O)c2cc(Oc3cncc(F)c3)cn3cnnc23)c([2H])c([2H])c1[2H]`, the IC50 came to 0.045 µM. As for `Cc1nnc2c(C(=O)Nc3cccc(F)n3)cc(Oc3cncc(F)c3)cn12`, the IC50 stood at 1.07 µM. On to `Cc1nc(NC(=O)c2cc(Oc3cncc(F)c3)cn3ccnc23)ccc1F`, for which the IC50 turned out to be 0.189 µM. For the compound `COc1cncc(Oc2cc(C(=O)Nc3ccccn3)c3nccn3c2)c1`, the IC50 amounted to 0.04 µM. Turning to `O=C(Nc1ccc(F)cn1)c1cc(Oc2cncc(F)c2)cn2ccnc12`, the half-maximal inhibitory concentration (IC50) was found to be 0.012 µM.

Consider `O=C(Nc1cccc(F)n1)c1cc(Oc2cncnc2)cn2cnnc12`, for which the half-maximal inhibitory concentration (IC50) amounted to 0.232 µM.

With `[2H]c1nc(NC(=O)c2cc(Oc3cncc(OC)c3)cn3ncnc23)c([2H])c([2H])c1[2H]`, the half-maximal inhibitory concentration (IC50) came out at 0.104 µM. `Cc1csc(NC(=O)c2cc(Oc3cncc(F)c3)cn3ncnc23)n1`: the IC50 came out at 0.049 µM.

Consider `COc1ccc(NC(=O)c2cc(Oc3cncc(Cl)c3)cn3cnnc23)nc1`, for which the IC50 was determined as 0.624 µM. `[2H]c1nc(NC(=O)c2cc(Oc3cncc(Cl)c3)cn3ncnc23)c([2H])c([2H])c1[2H]`: the IC50 was determined as 0.043 µM. On to `COc1cccc(NC(=O)c2cc(Oc3cncc(F)c3)cn3ccnc23)n1`, for which the IC50 came out at 0.094 µM. For the compound `O=C(Nc1cccc(F)n1)c1cc(Oc2cccnc2)cn2ncnc12`, the IC50 worked out at 0.032 µM.

Turning to `O=C(Nc1ccccn1)c1cc(Oc2cc(F)cnc2F)cn2ncnc12`, the IC50 was determined as 0.086 µM. On to `CCc1cccc(NC(=O)c2cc(Oc3cncc(OC)c3)cn3ccnc23)n1`, for which the IC50 came out at 0.377 µM. `CCc1cccc(NC(=O)c2cc(Oc3cncc(F)c3)cn3ccnc23)n1`: the IC50 turned out to be 0.248 µM. Regarding `[2H]c1nc(NC(=O)c2cc(Oc3cncc(F)c3)cn3ncnc23)c([2H])c([2H])c1[2H]`, the IC50 turned out to be 0.043 µM. In the case of `Cc1csc(NC(=O)c2cc(Oc3cncc(C#N)c3)cn3cnnc23)n1`, the IC50 was determined as 1.21 µM. As for `O=C(Nc1ccc(F)cn1)c1cc(Oc2cncnc2)cn2ncnc12` [drawing 195], the IC50 is 0.1 µM and 0.075 µM. In the case of `Cc1ncc(Oc2cc(C(=O)Nc3ccccn3)c3nncn3c2)cn1`, the IC50 was 9.41 µM.

`COc1cncc(Oc2cc(C(=O)Nc3cccc(OC)n3)c3nccn3c2)c1`: the IC50 worked out at 0.268 µM.

For `O=C(Nc1ccc(F)cn1)c1cc(Oc2cncc(Cl)c2)cn2cnnc12`, the IC50 was 0.285 µM. Take `CCc1cccc(NC(=O)c2cc(Oc3cncc(C)c3)cn3ncnc23)n1`: the IC50 turned out to be 0.483 µM. On to `COc1cccc(NC(=O)c2cc(Oc3cnc(C)nc3)cn3ccnc23)n1`, for which the IC50 came to 2.84 µM. As to `CCc1cccc(NC(=O)c2cc(Oc3cnc(F)c(F)c3)cn3ncnc23)n1`, the concentration for half-maximal inhibition (IC50) stood at 0.559 µM. For the compound `O=C(Nc1ccc(F)cn1)c1cc(Oc2cncnc2)cn2cnnc12`, the IC50 was found to be 0.162 µM. In the case of `Cc1cncc(Oc2cc(C(=O)Nc3cccc(F)n3)c3ncnn3c2)c1`, the IC50 turned out to be 0.089 µM.

Regarding `COc1cncc(Oc2cc(C(=O)Nc3ccc(F)cn3)c3nccn3c2)c1`, the IC50 worked out at 0.04 µM. As for `COc1cccc(NC(=O)c2cc(Oc3cncnc3)cn3cnnc23)n1`, the IC50 stood at 0.162 µM. `COc1ccc(NC(=O)c2cc(Oc3cncc(F)c3)cn3ncnc23)nc1`: the IC50 came out at 0.068 µM.

Take `COc1cncc(Oc2cc(C(=O)Nc3nc(C)cs3)c3nccn3c2)c1`: the IC50 stood at 0.066 µM. `Cc1cncc(Oc2cc(C(=O)Nc3nc(C)cs3)c3ncnn3c2)c1`: the IC50 came to 0.128 µM. For `Cc1nc2c(C(=O)Nc3ccc(F)c(C)n3)cc(Oc3cncc(F)c3)cn2n1`, the IC50 amounted to 0.846 µM. In the case of `Cc1cccc(NC(=O)c2cc(Oc3cncnc3)cn3cnnc23)n1` it was 0.674 µM; in that of `O=C(Nc1ccc(F)cn1)c1cc(Oc2cnc(F)c(F)c2)cn2ncnc12`, 0.059 ± 0.011 µM. With `[2H]c1nc(NC(=O)c2cc(Oc3cncnc3)cn3cnnc23)c([2H])c([2H])c1[2H]`, the IC50 was 0.469 µM.

Consider `Cc1csc(NC(=O)c2cc(Oc3cncc(C#N)c3)cn3ncnc23)n1`, for which the half-inhibitory concentration (IC50) was 0.193 µM. For the compound `O=C(Nc1ccccn1)c1cc(Oc2cncc(F)c2)cn2cnnc12`, the IC50 was 0.033 µM. `Cc1ncc(Oc2cc(C(=O)Nc3ccccn3)c3nccn3c2)cn1`: the IC50 turned out to be 3.31 µM. On to `Cc1cccc(NC(=O)c2cc(Oc3cnc(F)c(F)c3)cn3ncnc23)n1`, for which the IC50 is 0.128 µM.

As to `CCc1cccc(NC(=O)c2cc(Oc3cncc(OC)c3)cn3cnnc23)n1` [drawing 287], the IC50 is more than 10 µM. Turning to `Cc1cccc(NC(=O)c2cc(Oc3cncc(Cl)c3)cn3ncnc23)n1`, the IC50 was 0.13 µM. As for `COc1cccc(NC(=O)c2cc(Oc3cncc(Cl)c3)cn3cnnc23)n1`, the IC50 worked out at 1.36 µM. As to `[2H]c1nc(NC(=O)c2cc(Oc3cncc(C)c3)cn3ncnc23)c([2H])c([2H])c1[2H]`, the IC50 came out at 0.055 µM.

For the compound `O=C(Nc1ccc(F)cn1)c1cc(Oc2cncc(F)c2)cn2ncnc12` [drawing 179], the IC50 was 0.023 µM and 0.025 µM. For the compound `COc1cccc(NC(=O)c2cc(Oc3cncc(F)c3)cn3ncnc23)n1`, the IC50 turned out to be 0.07 µM.

In the case of `CCc1cccc(NC(=O)c2cc(Oc3cnc(C)nc3)cn3cnnc23)n1`, the IC50 is more than 10 µM. Turning to `Cc1ccc(NC(=O)c2cc(Oc3cncc(F)c3)cn3ccnc23)nc1`, the IC50 stood at 0.048 µM.

Turning to `Cc1nc2c(C(=O)Nc3ccc(F)cn3)cc(Oc3cncc(F)c3)cn2n1`, the IC50 amounted to 0.31 µM.
